# Measured values reported in patent US7981861B2, “Method of performing angioplasty with a GLP-1 molecule” (Amylin Pharmaceuticals, Inc., priority 2000, dated 2011).
# “Also recorded” adds a separate entry of the source.
# Legend:
# Wistar rats = test: LAD coronary artery occlusion (25 min) and 2-hour reperfusion, infarct size in anesthetized rats; assay type: in vivo, rat
# Description: Wistar rats were anesthetized with thiopentone sodium. The left anterior descending (LAD) coronary artery was occluded. After 25 minutes of occlusion, reperfusion was allowed for 2 hours. This animal model has been described previously. Zacharowski, et al., Br. J. Pharmacol. 128; 945-952 (1999).
# GLP-1 (1.5 μg/kg/min) was infused into anesthetized rats (n=10), commencing 10 minutes prior to reperfusion and continuing throughout the 2-hour reperfusion. Controls were sham operated with no occlusion (n=7), LAD occlusion+reperfusion+administration of saline (n=12), and LAD occlusion and reperfusion with a buffer of 10 mM sodium acetate, 5.05% D-mannitol, pH 4.5, (“vehicle”) at 1.5 mL/kg/hour (n=10).
# Following reperfusion, the coronary artery was reoccluded, and Evans Blue dye (4 ml, 2% w/v) was injected into the left ventricle of the heart via a right carotid artery cannula. Evans Blue stains perfused myocardium, while occluded vascular bed remains uncolored. Animals were then killed by anesthetic overdose and the hearts were removed for examination. Hearts were sectioned and the right ventricular wall was removed. The area at risk (pink) was separated from the non-ischemic tissue (blue). The area at risk (pink) was then cut into smaller pieces and stained with p-nitroblue tetrazolium (NBT; 0.5 mg/ml) for 20 min. at 37° C. In the presence of intact dehydrogenase enzyme systems (viable myocardium), NBT forms a dark blue compound. Areas of necrosis lack the enzyme and remain unstained. Tissue was separated according to staining and weighed to determine infarct size as a percentage of the area at risk.
# dogs = test: 10-minute left circumflex coronary (LCx) occlusion/reperfusion, myocardial stunning in dogs; assay type: in vivo, dog; settings: GLP-1 infusion for 24 hours beginning 1 minute prior to reperfusion
# Description: Two dogs were studied at baseline before, during, and for 6 hours after a 10-minute complete left circumflex coronary (LCx) occlusion. Each dog underwent occlusion/reperfusion in the presence and absence of GLP-1 infusion for 24 hours, beginning 1 minute prior to reperfusion. GLP-1 infusion enhanced the recovery of ventricular wall regional dysfunction following 10 minutes of coronary artery occlusion.
substance,measurement,setting,value
GLP-1,infarct size as a percentage of the area at risk,"Wistar rats; GLP-1 1.5 μg/kg/min infusion from 10 minutes prior to reperfusion and throughout 2-hour reperfusion, n=10, vehicle 46±4%, saline 50±3%",31±4%
same,reduction in infarct size compared with the vehicle group,"Wistar rats; GLP-1 1.5 μg/kg/min infusion, statistically significant (p<0.05)",approximately 33%
same,reduction of infarct size (summary statement),"Wistar rats; GLP-1 during last 10 min. of 25 min. ischemia and throughout 2-hour reperfusion, rats",30%
same,hemodynamics,"Wistar rats; rats, GLP-1 during last 10 min. of ischemia and throughout 2-hour reperfusion",significantly improved
same,stunning period during reperfusion after subcritical ischemia,dogs; dogs,significantly reduced; also recorded: reduced stunning
same,recovery of ventricular wall regional dysfunction following 10 minutes of coronary artery occlusion,dogs; two dogs,enhanced
